Results as given in patent publication US7001924B2, “Inhibitors of RNase P proteins as antibacterial compounds” (Message Pharmaceuticals, priority 2001, dated 2006).
Entries after “also recorded” stand apart in the source; their conditions may differ. Structures can show the parent of a compound that is named as a salt.

Experiments:
N. gonorrhea = experiment: Bacterial inhibition assay, N. Gonorrhea growth; type: cell-based; conditions: tested at 1, 3 and 10 μM, result in words
Experimental: (§1) Compounds of the invention (see Table 1 and FIG. 3) were assayed for their ability to inhibit bacterial growth. Compounds were diluted from 10 mM DMSO stocks to 3 mM and 1 mM in DMSO. The compounds were further diluted from these stocks into saline for 200, […], and 20 μM stocks. Control antibiotics were diluted similarly. Overnight cultures of bacteria were made in the following manner. N. gonorrhea was streaked onto a chocolate agar plate and incubated at 35° C./5% CO2. A loopful from a stock plate of E. coli was added to 3 mL TSB medium, vortexed and incubated at 37° C. in the absence of CO2. An S. aureus culture was made as described for the E. coli culture, except that a nutrient broth was used instead of TSB medium. […]
(§2) On the following day bacteria were prepared by dilution into saline with O.D. 625 nM readings taken to determine the concentration of the bacteria. CFUs (colony forming units) were determined using the formula: CFU/mL=OD625×(1.5×10^8 CFU/mL/OD McFarland std)×dilution. […] Plates were incubated at 35° C. with O2 for 16-20 hours for S. aureus, S. pyogenes, and E. coli and read at OD665 in the Victor2 plate reader. […] The plates were read at OD490. […] The results, which are expressed as a percentage of the control, were calculated using equation 2. […]

[1] = system: bacterial growth (N. gonorrhea, E. coli, S. aureus, S. pyogenes); experiment: Bacterial inhibition assay (species not stated); type: cell-based; conditions: tested at 1, 3 and 10 μM; species not given, refers to FIGS. 1A-2
Experimental: The ability of compounds of the invention to inhibit bacterial growth can also be assessed by standard testing procedures, such as monitoring bacterial growth in the presence of one or more candidate compound. Any reduction in bacterial growth, in comparison to an uninhibited control, is a measure of the antibacterial activity of the compound. The antibacterial activity of some compounds of the invention were measured against N. gonorrhea, E. coli, S. aureus, and S. pyogenes (Example 23).
Compounds of the invention (see Table 1 and FIG. 3) were assayed for their ability to inhibit bacterial growth. Compounds were diluted from 10 mM DMSO stocks to 3 mM and 1 mM in DMSO. The compounds were further diluted from these stocks into saline for 200, 120, and 20 μM stocks. Control antibiotics were diluted similarly. Overnight cultures of bacteria were made in the following manner. N. gonorrhea was streaked onto a chocolate agar plate and incubated at 35° C./5% CO2. A loopful from a stock plate of E. coli was added to 3 mL TSB medium, vortexed and incubated at 37° C. in the absence of CO2. An S. aureus culture was made as described for the E. coli culture, except that a nutrient broth was used instead of TSB medium. Rather than make an overnight culture of S. pyogenes, a loopful of S. pyogenes from a blood plate or a stock plate was used the following day for direct cell suspension.
On the following day bacteria were prepared by dilution into saline with O.D. 625 nM readings taken to determine the concentration of the bacteria. CFUs (colony forming units) were determined using the formula: CFU/mL=OD625×(1.5×10^8 CFU/mL/OD McFarland std)×dilution. The four bacterial cultures were diluted initially to 5.5×10^7 CFU/mL. The bacteria were then further diluted into medium to 5.5×10^5 CFU/mL for S. aureus, S. pyogenes and E. coli and 5.5×10^6 CFU/mL for N. gonorrhea. S. aureus and E. coli are grown in CAMHB medium and S. pyogenes and N. gonorrhea in CAMHB-3% LHB medium. The bacteria were added one per plate at 200 μL per well. Compounds were added in 10 μL for final concentrations of 10, 3 and 1 μM in duplicate. Control antibiotics for S. aureus, oxacillin; for S. pyogenes, penicillin; for E. coli, ampicillin; and for N. gonorrhea, ciprofloxacin were added from 0.8 mg/ml to 0.003 mg/ml. Plates were incubated at 35° C. with O2 for 16-20 hours for S. aureus, S. pyogenes, and E. coli and read at OD665 in the Victor2 plate reader. Plates were incubated at 35° C. with 5% CO2 for 24 hours for N. gonorrhea at which time 40 μL of MTS reagent is added per well and incubated for 1 hour in same incubator. The plates were read at OD490. Compounds were tested at 1 μM, 3 μM, and 10 μM concentrations. The results, which are expressed as a percentage of the control, were calculated using equation 2. […]

[2] = system: N. gonorrhea RNase P (M1 RNA and C5 protein); experiment: RNase P inhibition assay (fluorescence polarization, ptRNA Gln cleavage); type: biochemical; conditions: tested at 0.3, 1, 3 and 10 μM, result in words, numbers only in figures
Description: The ability of compounds of the invention to inhibit RNase P enzymes can be assessed by standard techniques. For example, the cleavage of ptRNA^Gln by the enzyme N. Gonorrhea RNase P, can be monitored in the presence and absence of a candidate compound as described in the Example 23. The progress of the RNase P-mediated cleavage reaction can be assessed by measuring the fluorescence polarization level of the TAMRA moiety hybridized to the cleaved substrate
Compounds of the invention (see Table 1 and FIG. 3) were assayed for inhibition of RNase P activity. The assay components were the M1 RNA and C5 protein from N. gonorrhea and a model precursor tRNA substrate derived from Synechocystis ptGLN. The compounds were diluted in assay buffer (50 mM Tris-HCl, pH 7.5/100 mM […]/10 mM MgCl2/1 mM DTT/1 mg/ml BSA) from 2 μL of a 1 mM DMSO stock solutions in 384 well polypropylene plates to a concentration of 40 μM. 12.5 μL of each compound dilution was transferred to empty duplicate wells of two 384-well black polystyrene assay plates. One assay plate received 37.5 μL of assay buffer plus 12.5 μL of stop buffer (25 mM EDTA/1.25×SSC Buffer in PA buffer; SSC=150 mM NaCl, 15 mM sodium citrate and PA=50 mM TRIS hydrochloride, 100 mM ammonium chloride, 10 mM magnesium chloride) and was read immediately on a LJL Analyst fluorimeter to serve as a background fluorescence plate. The other plate sequentially received the following reagents diluted in assay buffer, 12.5 μL of 0.4 nM M1 RNA, 12.5 μL of 2 nM C5 protein, and 12.5 μL of 160 nM substrate. Wells were included that receive neither the M1 RNA nor the C5 protein to serve as no-enzyme controls. The enzymatic reaction was allowed to proceed for 30 minutes and was stopped by the addition of 12.5 μL per well of stop buffer containing 20 nM of a DNA-5′ TAMRA probe complementary to the 5′ end of the substrate. The probe was allowed to hybridize to the substrate for 2 hours, and the polarization status of the probe was measured using the LJL Analyst fluorimeter. All compounds were tested at 0.3 μM, 1 μM, 3 μM, and 10 μM concentrations. The results, which are expressed as a percentage of the control, were calculated using equation 1. In this equation, f is the fluorescence in counts per second; (f.enzyme+probe) is the fluorescence observed when enzymatic activity is uninhibited; (f.probe) is the fluorescence observed without enzymatic activity; and (f.compound+enzyme+probe) is the fluorescence observed when the enzymatic activity is modulated by a compound of the invention. Assay results for MES 35793 are shown in FIG. 7, and assay results for MES 31242, MES 82794, and MES 35793 are shown in FIG. 8. Other candidate RNase P inhibitors may be tested similarly using any RNase P holoenzyme and any appropriate RNase P substrate. [formula]

S. aureus = experiment: Bacterial inhibition assay, S. aureus growth; type: cell-based; conditions: tested at 1, 3 and 10 μM, result in words
Experimental: as §1, §2

Row | Compound | inhibition of bacterial growth, N. Gonorrhea growth data (N. gonorrhea) | inhibitors of bacterial growth (summary statement) [1] | inhibition of RNase P activity (fluorescence data, percentage of the control) [2] | inhibition of RNase P activity (fluorescence data, percentage of the control) ([2]; listed as MES10609) | inhibition of bacterial growth, S. aureus data (S. aureus) | inhibition of RNase P activity (fluorescence data, percentage of the control) ([2]; listed as MES10636)
1 | C/C(=N\NC(=N)N)c1cccc(C(=O)NCCNC(=O)c2cccc(/C(C)=N/NC(=N)N)c2)c1 [MES 10609, bisguanylhydrazone of N-(N′-2-(3-acetylbenzamido)-ethyl)-3-acetylbenzamide] | can inhibit bacterial growth | inhibitors of bacterial growth | can inhibit RNase P activity | inhibitors of RNase P activity | – | –
2 | C/C(=N\NC(=N)N)c1ccc(NC(=O)CNC(=O)c2cccc(/C(C)=N/NC(=N)N)c2)cc1 [MES 10635, Bisguanylhydrazone trifluoroacetic acid salt of N′-(3-acetylbenzoyl)-N-(4-acetylphenyl)glycinamide] | – | inhibitors of bacterial growth | inhibitors of RNase P activity; also recorded: can inhibit a representative RNase P | – | can inhibit bacterial growth | –
3 | C/C(=N\NC(=N)N)c1ccc(NC(=O)[C@H](Cc2ccccc2)NC(=O)c2cccc(/C(C)=N/NC(=N)N)c2)cc1 [MES 10636, Bisguanylhydrazone trifluoroacetic acid salt of N′-(3-acetylbenzoyl)-N-(4-acetylphenyl)phenylalaninamide] | – | inhibitors of bacterial growth | can inhibit a representative RNase P | – | can inhibit bacterial growth | inhibitors of RNase P activity
4 | CCN1/C(=C/C=C/c2sc3c4ccccc4ccc3[n+]2CC)Sc2cc(C)c(C)cc21 [MES 31242] | – | – | can inhibit a representative RNase P | – | – | –
5 | CCN1/C(=C\C=c2/s/c(=C\c3sc4ccccc4[n+]3CC)n(CC)c2=O)Sc2ccccc21 [MES 35793] | can inhibit bacterial growth | inhibitors of bacterial growth | can inhibit RNase P activity; also recorded: can inhibit a representative RNase P | – | – | –
6 | CCN1/C(=C/c2sc3ccc(O)cc3[n+]2CC)C=Cc2ccc(C)cc21 [MES 82794] | – | – | can inhibit a representative RNase P | – | – | –
